Data as given in paper PMC10896643 (Journal of medicinal chemistry, 2023).
“Also recorded” adds a separate entry of the source.

Legend:
hA3AR = target: T1, hA3AR (Homo sapiens, UniProt P0DMS8); experiment: cAMP functional assay in CHO-A3 cells; details: 10 μM
T1 sequence (P0DMS8 1-318): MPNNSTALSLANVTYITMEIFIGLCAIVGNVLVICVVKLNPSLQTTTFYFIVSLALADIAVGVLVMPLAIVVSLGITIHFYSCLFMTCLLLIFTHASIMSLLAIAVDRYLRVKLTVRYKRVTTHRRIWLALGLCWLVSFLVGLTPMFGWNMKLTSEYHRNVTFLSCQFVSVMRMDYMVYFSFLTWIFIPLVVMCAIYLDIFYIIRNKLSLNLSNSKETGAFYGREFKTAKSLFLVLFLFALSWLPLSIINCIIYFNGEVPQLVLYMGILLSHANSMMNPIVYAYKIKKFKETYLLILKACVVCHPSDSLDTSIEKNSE

hA2AAR = hA2AAR (Homo sapiens, UniProt P29274); experiment: cAMP functional assay in CHO-A2A cells; details: 10 μM
CYP1A2 = target: T2, CYP1A2 (Homo sapiens, UniProt P05177); experiment: CYP isoform inhibition; type: in vitro ADME
T2 sequence (P05177 1-516): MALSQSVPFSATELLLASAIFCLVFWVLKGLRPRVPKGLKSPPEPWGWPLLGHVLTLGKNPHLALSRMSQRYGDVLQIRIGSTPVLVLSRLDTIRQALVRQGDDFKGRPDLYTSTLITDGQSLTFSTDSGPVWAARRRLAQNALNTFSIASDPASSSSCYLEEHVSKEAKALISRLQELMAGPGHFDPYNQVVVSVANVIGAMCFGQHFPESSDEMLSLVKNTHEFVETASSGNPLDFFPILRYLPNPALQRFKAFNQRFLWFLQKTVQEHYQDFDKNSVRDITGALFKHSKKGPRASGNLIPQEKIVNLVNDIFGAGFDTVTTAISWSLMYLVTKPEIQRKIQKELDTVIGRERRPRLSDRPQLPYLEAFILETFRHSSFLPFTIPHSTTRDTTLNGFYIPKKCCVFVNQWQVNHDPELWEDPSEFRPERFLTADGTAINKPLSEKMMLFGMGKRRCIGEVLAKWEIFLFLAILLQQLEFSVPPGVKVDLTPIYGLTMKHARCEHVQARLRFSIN

CYP2C9 = CYP2C9 (Homo sapiens, UniProt P11712); experiment: CYP isoform inhibition; type: in vitro ADME
CYP2C19 = CYP2C19 (Homo sapiens, UniProt P33261); experiment: CYP isoform inhibition; type: in vitro ADME
CYP2D6 = CYP2D6 (Homo sapiens, UniProt P10635); experiment: CYP isoform inhibition; type: in vitro ADME
CYP3A4 = CYP3A4 (Homo sapiens, UniProt P08684); experiment: CYP isoform inhibition; type: in vitro ADME
hERG K+ channels = hERG K+ channels (Homo sapiens, UniProt Q12809); experiment: hERG K+ channel inhibition; type: in vitro ADME
4T1-Luc tumors = experiment: In vivo antitumor activity in 4T1-Luc tumor-bearing mice; details: 10 mg/kg i.p., alone or with anti-PD-L1

Sequence of hERG K+ channels (Q12809 whole entry): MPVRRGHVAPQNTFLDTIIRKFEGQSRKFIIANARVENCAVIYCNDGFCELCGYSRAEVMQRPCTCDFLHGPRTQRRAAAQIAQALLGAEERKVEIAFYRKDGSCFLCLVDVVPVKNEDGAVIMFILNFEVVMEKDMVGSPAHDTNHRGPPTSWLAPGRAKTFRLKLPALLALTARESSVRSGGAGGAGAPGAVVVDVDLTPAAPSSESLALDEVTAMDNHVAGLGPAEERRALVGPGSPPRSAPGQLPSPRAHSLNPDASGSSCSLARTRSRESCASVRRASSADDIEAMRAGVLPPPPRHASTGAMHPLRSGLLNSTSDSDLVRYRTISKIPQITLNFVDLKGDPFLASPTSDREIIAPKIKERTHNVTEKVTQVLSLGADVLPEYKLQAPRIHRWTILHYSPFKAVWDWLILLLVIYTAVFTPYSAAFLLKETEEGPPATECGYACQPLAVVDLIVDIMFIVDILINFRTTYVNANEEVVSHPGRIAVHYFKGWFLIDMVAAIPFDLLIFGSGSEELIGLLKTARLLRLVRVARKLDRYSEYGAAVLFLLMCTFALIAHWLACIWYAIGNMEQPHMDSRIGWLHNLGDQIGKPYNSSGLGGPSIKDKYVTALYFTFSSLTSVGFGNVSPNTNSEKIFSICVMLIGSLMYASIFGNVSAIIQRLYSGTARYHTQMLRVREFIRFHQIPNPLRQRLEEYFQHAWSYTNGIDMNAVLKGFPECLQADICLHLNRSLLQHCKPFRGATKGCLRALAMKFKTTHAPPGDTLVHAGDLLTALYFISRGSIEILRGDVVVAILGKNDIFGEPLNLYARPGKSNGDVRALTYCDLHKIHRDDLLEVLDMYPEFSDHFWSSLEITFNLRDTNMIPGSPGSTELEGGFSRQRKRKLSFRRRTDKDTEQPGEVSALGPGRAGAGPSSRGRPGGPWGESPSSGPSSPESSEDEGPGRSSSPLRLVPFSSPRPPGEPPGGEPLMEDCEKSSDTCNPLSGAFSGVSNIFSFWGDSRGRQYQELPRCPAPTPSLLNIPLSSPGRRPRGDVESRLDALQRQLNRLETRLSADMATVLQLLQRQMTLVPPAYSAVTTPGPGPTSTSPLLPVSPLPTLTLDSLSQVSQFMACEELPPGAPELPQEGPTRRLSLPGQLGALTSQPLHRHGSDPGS
Sequence of CYP2D6 (P10635 whole entry, species assumed, canonical isoform): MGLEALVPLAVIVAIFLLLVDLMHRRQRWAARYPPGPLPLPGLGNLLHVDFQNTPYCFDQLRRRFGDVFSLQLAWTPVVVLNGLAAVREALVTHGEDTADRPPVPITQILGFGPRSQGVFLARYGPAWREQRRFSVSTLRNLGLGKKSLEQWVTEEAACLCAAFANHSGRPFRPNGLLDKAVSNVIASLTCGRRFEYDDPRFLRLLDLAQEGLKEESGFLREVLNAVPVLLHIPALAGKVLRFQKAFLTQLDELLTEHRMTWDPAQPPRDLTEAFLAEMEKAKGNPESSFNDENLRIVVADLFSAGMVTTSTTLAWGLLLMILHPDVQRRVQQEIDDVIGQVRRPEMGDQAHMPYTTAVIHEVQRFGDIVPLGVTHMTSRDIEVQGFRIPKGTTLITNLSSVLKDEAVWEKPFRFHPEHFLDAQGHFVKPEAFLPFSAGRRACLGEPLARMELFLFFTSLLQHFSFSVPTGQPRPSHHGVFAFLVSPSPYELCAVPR
Sequence of CYP2C19 (P33261 whole entry, species assumed, canonical isoform): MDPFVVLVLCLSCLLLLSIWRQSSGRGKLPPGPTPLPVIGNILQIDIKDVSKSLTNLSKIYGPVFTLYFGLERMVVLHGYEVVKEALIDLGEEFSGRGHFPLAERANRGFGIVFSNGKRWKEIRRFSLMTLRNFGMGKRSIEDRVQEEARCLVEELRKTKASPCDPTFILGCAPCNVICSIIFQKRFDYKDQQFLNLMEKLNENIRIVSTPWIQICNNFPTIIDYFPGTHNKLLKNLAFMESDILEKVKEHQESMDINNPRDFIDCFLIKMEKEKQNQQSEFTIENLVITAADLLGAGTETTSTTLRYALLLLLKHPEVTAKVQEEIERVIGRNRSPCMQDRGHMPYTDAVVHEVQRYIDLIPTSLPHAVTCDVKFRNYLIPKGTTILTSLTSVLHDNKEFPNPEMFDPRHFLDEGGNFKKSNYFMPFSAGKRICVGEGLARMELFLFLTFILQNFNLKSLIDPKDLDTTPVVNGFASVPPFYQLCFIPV
Sequence of CYP2C9 (P11712 whole entry, species assumed, canonical isoform): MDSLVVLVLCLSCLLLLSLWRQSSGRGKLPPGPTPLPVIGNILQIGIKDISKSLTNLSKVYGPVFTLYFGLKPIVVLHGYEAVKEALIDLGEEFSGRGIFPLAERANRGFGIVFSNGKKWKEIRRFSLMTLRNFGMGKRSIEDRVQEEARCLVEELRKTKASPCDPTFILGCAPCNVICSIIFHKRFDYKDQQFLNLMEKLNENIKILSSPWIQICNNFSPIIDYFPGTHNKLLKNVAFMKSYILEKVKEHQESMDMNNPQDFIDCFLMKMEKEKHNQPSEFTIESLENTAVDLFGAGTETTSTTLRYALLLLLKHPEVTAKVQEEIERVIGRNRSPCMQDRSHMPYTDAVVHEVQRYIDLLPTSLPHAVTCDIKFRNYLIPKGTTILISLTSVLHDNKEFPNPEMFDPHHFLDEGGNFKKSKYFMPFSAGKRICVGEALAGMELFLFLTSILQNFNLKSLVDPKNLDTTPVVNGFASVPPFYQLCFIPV
Sequence of hA2AAR (P29274 whole entry, canonical isoform): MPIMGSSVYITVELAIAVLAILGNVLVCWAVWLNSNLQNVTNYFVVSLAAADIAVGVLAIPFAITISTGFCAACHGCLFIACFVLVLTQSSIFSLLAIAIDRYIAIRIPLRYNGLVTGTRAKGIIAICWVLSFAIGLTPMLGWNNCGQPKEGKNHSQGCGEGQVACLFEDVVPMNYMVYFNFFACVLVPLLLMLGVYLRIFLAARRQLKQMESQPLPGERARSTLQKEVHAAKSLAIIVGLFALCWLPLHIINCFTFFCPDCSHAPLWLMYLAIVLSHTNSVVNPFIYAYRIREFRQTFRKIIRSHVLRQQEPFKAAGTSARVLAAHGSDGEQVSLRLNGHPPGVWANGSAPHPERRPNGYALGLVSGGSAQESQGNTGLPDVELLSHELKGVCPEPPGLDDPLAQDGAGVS
Sequence of CYP3A4 (P08684 whole entry, species assumed, canonical isoform): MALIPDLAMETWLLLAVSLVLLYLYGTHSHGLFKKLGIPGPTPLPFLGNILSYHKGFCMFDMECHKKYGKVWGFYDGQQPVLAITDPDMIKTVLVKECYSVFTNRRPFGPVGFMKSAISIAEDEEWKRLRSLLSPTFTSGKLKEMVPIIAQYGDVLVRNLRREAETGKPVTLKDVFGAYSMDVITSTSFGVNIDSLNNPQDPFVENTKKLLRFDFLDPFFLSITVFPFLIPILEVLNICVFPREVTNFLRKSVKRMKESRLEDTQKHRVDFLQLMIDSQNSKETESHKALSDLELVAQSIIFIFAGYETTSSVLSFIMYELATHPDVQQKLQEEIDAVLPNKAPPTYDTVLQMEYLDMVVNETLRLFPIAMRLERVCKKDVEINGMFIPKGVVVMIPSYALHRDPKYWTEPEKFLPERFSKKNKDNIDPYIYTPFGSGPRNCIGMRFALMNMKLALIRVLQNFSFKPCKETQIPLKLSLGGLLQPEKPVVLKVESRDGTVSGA

| hA3AR activation (hA3AR) | receptor activation / antagonism at hA2AAR (hA2AAR) | CYP1A2 inhibition (CYP1A2) | CYP2C9 inhibition (CYP2C9) | CYP2C19 inhibition (CYP2C19) | CYP2D6 inhibition (CYP2D6) | CYP3A4 inhibition (CYP3A4) | Structure (SMILES) | hERG K+ channel inhibition (hERG K+ channels) | adverse effects / body weight loss (4T1-Luc tumors) |
| --- | --- | --- | --- | --- | --- | --- | --- | --- | --- |
| inhibited hA3AR activation | no receptor activation |  |  |  |  |  | CCCCC#Cc1nc(N)c2nc(-c3ccco3)n([C@@H]3OC[C@@H](O)[C@H]3O)c2n1 [5a, (2R,3R,4R)-2-(6-Amino-8-(furan-2-yl)-2-(hex-1-yn-1-yl)-9H-purin-9-yl)tetrahydrofuran-3,4-diol] |  |  |
|  |  | did not significantly inhibit | did not significantly inhibit | did not significantly inhibit | did not significantly inhibit | did not significantly inhibit | CCCCC#Cc1nc(N)c2nc(-c3cccs3)n([C@@H]3OC[C@@H](O)[C@H]3O)c2n1 [5d, (2R,3R,4R)-2-(6-Amino-2-(hex-1-yn-1-yl)-8-(thiophen-2-yl)-9H-purin-9-yl)tetrahydrofuran-3,4-diol] | did not significantly inhibit | No adverse effects or body weight loss; also recorded: without any adverse effects and body weight loss |
